Results: patent publication US9018391B2, “Inhibitors of beta-secretase” (Boehringer Ingelheim International GmbH, priority 2012, dated 2015)

Experiments:
hERG channel = hERG channel (Homo sapiens (Human), UniProt Q12809); assay: hERG-Channel Assay (Assay 2), whole-cell patch clamp in HEK293 cells stably transfected with hERG cDNA; format: cell-based; conditions: human, HEK293 cells stably transfected with hERG cDNA, pH 7.4, 35° C.
From the text: hERG-Channel Assay (Assay 2)
Cells: HEK (human embryonic kidney) 293 cells were stably transfected with hERG cDNA.
Cells were superfused with a bath solution containing (mM): NaCl (137), KCl (4.0), MgCl2 (1.0), CaCl2 (1.8), Glucose (10), HEPES (10), pH 7.4 with NaOH. Patch pipettes were made from borosilicate glass tubing using a horizontal puller and filled with pipette solution containing (mM): K-aspartate (130), MgCl2 (5.0), EGTA (5.0), K2ATP (4.0), HEPES (10.0), pH 7.2 with KOH. Resistance of the microelectrodes was in the range between 2 and 5 MΩ.
Stimulation and Recording:
Membrane currents were recorded using an EPC-10 patch clamp amplifier and PatchMaster software. hERG-mediated membrane currents were recorded at 35° C., using the whole-cell configuration of the patch-clamp technique. Transfected HEK293 cells were clamped at a holding potential of −60 mV and hERG-mediated inactivating tail currents were elicited using a pulse pattern with fixed amplitudes (activation/inactivation: 40 mV for 2000 ms; recovery: −120 mV for 2 ms; ramp to 40 mV in 2 ms; inactivating tail current: 40 mV for 50 ms) repeated at 15 s intervals. During each inter-pulse interval, 4 pulses scaled down by a factor of 0.2 were recorded for a P/n leak subtraction procedure. Rs compensation was employed up to a level that safely allowed recording devoid of ringing.
Compound Preparation and Application:
The different concentrations of the test compounds were applied sequentially on each of the different cells investigated. A steady state level of baseline current was measured for at least 6 sweeps prior to the application of the first test compound concentration.
The test compound was dissolved in DMSO to yield a master stock solution which was diluted further in DMSO to stock solutions needed for the lower concentrations. Final dilutions in extracellular buffer were prepared freshly from these stocks by a 1:1000 dilution step each before starting the experiments.
Peak current amplitudes were measured 3 ms after the ramp to +40 mV. For baseline and each concentration, the peak currents of the three last sweeps before application of the next concentration were averaged. Residual currents (I/I0) were calculated for each cell as the fraction of actual average peak current and average baseline peak current.

[1] = tested on: brain amyloid peptides Aβ1-x; assay: Rat Brain Aβ Lowering Assay (Assay 5); format: in vivo; conditions: 3 hrs after dosing
Method: Rat Brain Aβ Lowering Assay (Assay 5)
The animals were sacrificed 3 hrs after dosing, and brains were excised, dissected into cerebellum and left and right cerebra and flash-frozen in liquid nitrogen.
The cerebrum was homogenized (5 volumes per weight) in 20 mM Tris-HCL, pH 8.5, 0.2% Triton-X100 supplemented with protease inhibitors (cOmplete, Roche Applied Science) at 4° C. using a glass Dounce homogenizer. The homogenate was centrifuged at 120,000×g for 60 min at 4° C., and the supernatant was collected and analyzed for […] using immunoassay with chemiluminescent detection (Meso-Scale Discovery, Rockville, Md. (MSD)).
Streptavidin 96-well plates (MSD) were pre-blocked with 5% Blocker A solution (MSD) for 1 hr at rt on an orbital shaker and washed 4 times with phosphate buffered saline (PBS). The wells were pre-coated with 20 ng/well of biotinylated antibody SIG-39155 (Clone M3.2, specific for amino acids 10-15 of the rodent Aβ) for 1 hr at rt and washed 4 times with PBS. For Aβ1-x analysis, 25 μl of either the cleared brain lysates or Aβ1-40 standards (8-500 pg/ml, with 2× increment) were incubated for 1 hr at rt with constant shaking. The wells were washed 4 times with PBS, and 25 μl of the detection antibody (Sulfo-TAG labeled anti-Aβ40 antibody supplied by MSD) was added and incubated for 1 hr at rt. After 4 washes with PBS, 150 μl of the chemiluminescence detection reagent (Read Buffer T, MSD) was added, and the plate was read on an MSD Sector Imager 6000 instrument. The calibration curve was fit into a non-linear four-parameter regression model, and the Aβ1-x concentrations were calculated for each well containing the cleared brain lysates. The percent of Aβ lowering was calculated based on the difference with the average Aβ concentration obtained for the brains from the animals treated with vehicle alone.

[2] = biological target: truncated human beta-secretase, BACE1 (amino acids 1-454) (Homo sapiens (Human), UniProt P56817); assay: BACE1 Assay (Assay 1), fluorescence quench assay; format: biochemical; conditions: pH 4.4
Method: The substrate was dissolved at 1 mg/ml in DMSO.
The assay was performed in the presence of OptiMEM™ (supernatant collected over 24 h and cleared from cellular debris by centrifugation) containing the ectodomain of BACE1, 25 μl water containing the desired 2-fold concentration of test compound and 2% DMSO, 1 μM substrate peptide, 20 mM NaOAc, pH 4.4, and 0.04% Triton-X100 in a total assay volume of 50 μl in a 384 well plate. In general, 25 μl of compound dilution were added to the plate followed by the addition of 10 μl of BACE1 containing OptiMEM™ diluted 1:10 in water with 0.2% Triton X-100. The reaction was started with the addition of 15 μl substrate in NaOAc buffer. The reaction was incubated at rt (dark) in an Envision® multilabel reader (Perkin Elmer) and the cleavage of the substrate was recorded as kinetic for […] at ex: 485 nm, em: 538 nm. Blank wells containing no enzyme were included on each plate.
The intensity of fluorescence was regressed against time in order to derive velocities of reaction in all 384 wells. These velocities were used for calculating percent control using an uninhibited control containing 1% DMSO as 100% and a blank control performed in the absence of enzyme as 0%. IC50 values were calculated by fitting percent control vs. test compound concentration using Assay Explorer®.

hERG channel, sequence (Q12809 whole entry): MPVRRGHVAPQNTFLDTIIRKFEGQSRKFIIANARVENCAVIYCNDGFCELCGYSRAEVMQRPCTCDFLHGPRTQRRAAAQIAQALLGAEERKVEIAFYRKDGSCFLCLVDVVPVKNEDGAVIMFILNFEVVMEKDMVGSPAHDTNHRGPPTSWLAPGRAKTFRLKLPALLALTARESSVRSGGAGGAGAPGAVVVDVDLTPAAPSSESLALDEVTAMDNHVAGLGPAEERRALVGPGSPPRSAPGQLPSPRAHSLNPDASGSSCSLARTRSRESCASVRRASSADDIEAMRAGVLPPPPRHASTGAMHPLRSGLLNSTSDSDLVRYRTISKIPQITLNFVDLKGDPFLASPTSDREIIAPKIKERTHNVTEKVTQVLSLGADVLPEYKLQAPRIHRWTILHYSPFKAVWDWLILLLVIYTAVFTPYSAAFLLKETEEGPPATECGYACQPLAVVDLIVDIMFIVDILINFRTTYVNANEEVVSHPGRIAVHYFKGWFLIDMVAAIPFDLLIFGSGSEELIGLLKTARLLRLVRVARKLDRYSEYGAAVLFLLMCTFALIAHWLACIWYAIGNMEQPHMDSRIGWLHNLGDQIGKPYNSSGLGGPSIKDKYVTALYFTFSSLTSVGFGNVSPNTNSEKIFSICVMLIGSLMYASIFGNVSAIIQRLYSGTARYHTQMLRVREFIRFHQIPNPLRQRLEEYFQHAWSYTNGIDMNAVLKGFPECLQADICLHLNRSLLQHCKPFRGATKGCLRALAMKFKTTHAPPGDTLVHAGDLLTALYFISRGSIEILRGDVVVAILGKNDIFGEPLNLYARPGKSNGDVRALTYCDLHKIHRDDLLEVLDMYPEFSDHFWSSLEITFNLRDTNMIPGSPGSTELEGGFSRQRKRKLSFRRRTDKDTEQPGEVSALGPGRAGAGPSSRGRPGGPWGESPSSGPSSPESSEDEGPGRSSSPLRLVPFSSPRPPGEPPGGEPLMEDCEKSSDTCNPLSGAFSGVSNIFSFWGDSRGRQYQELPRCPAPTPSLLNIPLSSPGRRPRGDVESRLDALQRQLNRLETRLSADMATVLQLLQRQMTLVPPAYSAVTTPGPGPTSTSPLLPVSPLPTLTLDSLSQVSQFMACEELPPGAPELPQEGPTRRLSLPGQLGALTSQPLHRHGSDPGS
truncated human beta-secretase, BACE1 (amino acids 1-454), sequence (P56817 22-454): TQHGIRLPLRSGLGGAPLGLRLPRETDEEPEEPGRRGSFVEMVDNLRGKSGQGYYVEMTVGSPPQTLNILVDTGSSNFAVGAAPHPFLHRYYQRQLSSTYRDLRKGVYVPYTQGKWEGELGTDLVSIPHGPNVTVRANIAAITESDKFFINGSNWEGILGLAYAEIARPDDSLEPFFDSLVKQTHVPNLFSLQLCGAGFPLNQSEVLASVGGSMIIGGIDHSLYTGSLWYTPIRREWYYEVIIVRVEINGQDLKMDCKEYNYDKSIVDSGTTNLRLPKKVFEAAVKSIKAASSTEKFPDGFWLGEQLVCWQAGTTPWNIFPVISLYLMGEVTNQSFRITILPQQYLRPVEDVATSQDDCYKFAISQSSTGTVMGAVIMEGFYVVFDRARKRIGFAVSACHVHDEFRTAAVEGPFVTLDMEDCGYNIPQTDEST

Row | IC50 [2] [nM] | Structure (SMILES) | inhibition at 10 µM (hERG channel) [%] | % Aβ Reduction ([1]; single oral dose 25 mg/kg) [%] | % Aβ Reduction ([1]; single oral dose 12.5 mg/kg) [%]
1 | 14.6 | C[C@@H]1C[C@@]2(Cc3ccc(C#N)cc3[C@]23N=C(N)N(CCC(F)(F)F)C3=O)C[C@H](C)[C@H]1O [Example 1] | 13 | 25 | 
2 | 10.7 | CC[C@@H]1C[C@]2(CC[C@H]1O)Cc1ccc(C#N)cc1[C@]21N=C(N)N(CC(C)(C)F)C1=O [Example 9] | 2.5 | 42 | 
3 | 10.3 | C[C@@H]1C[C@@]2(Cc3ccc(C#N)cc3[C@]23N=C(N)N(CC(C)(C)F)C3=O)C[C@H](C)[C@H]1O [Example 2] | 4.5 |  | 40
4 | 3.4 | CC[C@@H]1C[C@@]2(Cc3ccc(C#N)cc3[C@]23N=C(N)N(CC(C)(C)F)C3=O)C[C@H](C)[C@H]1O [Example 7] | 15 | 58 | 
5 | 2.7 | C[C@@H]1C[C@@]2(Cc3ccc(C#N)cc3[C@]23N=C(N)N(CC2(F)CCOCC2)C3=O)C[C@H](C)[C@H]1O [Example 4] | 13 |  | 21
